Series [1] has as its target T1, Human IP6K1 (Homo sapiens, UniProt Q92551).
T1 construct: GST (N, cleaved yes); made in house; host or cells: C43 E. coli, pGEX-6P-2
Briefly: IP6K1 inhibition dose-response assay (ADP-Glo Max). Format: biochemical. The conditions noted are these: for IC50: read-out: IC50 IP6K1. (In ADP-Glo the light output rises with the ADP produced.)

The test system of series [2] is enzymes involved in the detection steps of the kit. Briefly: Counter-screen against the detection steps of the ADP-Glo Max kit (no enzyme, no IP6). Conditions: 10μM compound, 25μM ADP and 975μM ATP. Format: biochemical. The protocol:
The Sigma LOPAC was obtained as 10mM DMSO stock solutions from the Johns Hopkins ChemCore facility. Each compound was first diluted to 50μM and 25% DMSO in assay buffer. The inhibition assay was performed as described above with 1μL of compound and 4μL of kinase master mix so that the final compound concentration was 10μM in 5% DMSO. […] Hits were determined based by the Z score, which is calculated as Z = (Xi-Xavg)/Sx, where Xi is the raw measurement on the i^th compound, Xavg and Sx are the mean and the standard deviation, respectively, of all measurements within the plate. Hits identified from the screen were repeated in the assay in quadruplicate for confirmation. These confirmed hits were then tested to determine if they inhibited the enzymes involved in the detection steps of the kit. Possible interference of the compounds was assessed by measuring the degree to which they inhibited the signal produced by a 25μM ADP in the presence of 975μM ATP. This experiment was run as described above for the inhibition assays in the absence of enzyme and IP6.

Series [3] deals with T1, Human IP6K1. The series can be described thus: Inositol polyphosphate separation by PAGE (5PP-IP5 production by IP6K1). Format: biochemical. The conditions noted are these: 10μM inhibitor, 1mM ATP, 250μM IP6, 60nM IP6K1, 2 hours, 37°C.
The subject of series [4] is DIO mice. Also on record: method as in PMID 27689003. The conditions noted are these: DIO model, mice treated with TNP; cited from earlier work.
The conditions of series [5]: cited from earlier work.
For series [6] the following is noted: cited from earlier work. The source holds these as a separate data set.
Series [7] has as its target T1, Human IP6K1. The series can be described thus: IP6K1 kinetic assay (ADP-Glo Max, Michaelis-Menten). Format: biochemical. Conditions: 400μM IP6, ATP 31.25μM to 2mM, 15ng IP6K1, 15 minutes. The protocol: IP6K1 activity was measured using the ADP-Glo Max kit (Promega). […] Reactions were quenched with 5μL of Promega ADP-Glo reagent to deplete the remaining ATP at the corresponding time points and incubated for 1hr at room temperature in the dark. […] Luminescence was detected with a Tecan Infinite […] plate reader. The amount of ADP produced by IP6K1 was determined by correlating the observed luminescence to a luminescence signal standard curve generated from various concentrations of ADP. A new standard curve was generated for each concentration of ATP tested such that the total amount of nucleotides (ATP+ADP) at every point on the curve was equal to the concentration of ATP used in the experiment. Standard curves typically began with 100μM or 50μM ADP and were serially 2-fold diluted 8 times. […] Nonlinear regressions and curve fitting to the Michaelis-Menten equation were performed in GraphPad Prism 7. […] The ADP production at […] was measured. The initial reaction velocity (V0) was calculated and plotted with each ATP condition. GraphPad Prism 7 was used to run the non-linear regression and fit the data to the Michaelis-Menten equation. […] The Michaelis-Menten constants when IP6 is the varied substrate were unable to be determined.

For series [8], the system named is IP6K1. Also on record: method as in PMID 8633060. The conditions noted are these: 3H-PP-IP5 production with 3H-IP6 as substrate; read-out: Km of ATP for IP6K1; cited from earlier work.

“Also recorded” adds a separate entry of the source. Like-named read-outs stand apart in the source and are kept apart here.

T1 sequence (Q92551 whole entry): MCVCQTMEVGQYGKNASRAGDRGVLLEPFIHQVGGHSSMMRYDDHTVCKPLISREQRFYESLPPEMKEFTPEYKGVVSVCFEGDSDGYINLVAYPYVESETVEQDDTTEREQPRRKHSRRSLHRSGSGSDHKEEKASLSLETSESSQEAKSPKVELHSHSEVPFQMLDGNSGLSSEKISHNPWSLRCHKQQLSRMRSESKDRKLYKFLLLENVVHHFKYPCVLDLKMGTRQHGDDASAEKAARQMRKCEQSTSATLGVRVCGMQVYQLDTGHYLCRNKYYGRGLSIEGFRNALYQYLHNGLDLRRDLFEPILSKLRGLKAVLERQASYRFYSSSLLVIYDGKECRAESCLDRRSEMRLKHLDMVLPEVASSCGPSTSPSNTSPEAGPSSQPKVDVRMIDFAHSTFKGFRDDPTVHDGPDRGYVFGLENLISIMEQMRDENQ

What is called IC50 is the midpoint of a concentration-inhibition curve. Turning to `O=[N+]([O-])c1ccc(CNc2nc(NCc3cccc(C(F)(F)F)c3)nc3nc[nH]c23)cc1` [TNP, N2-(m-trifluorobenzyl), N6-(p-nitrobenzyl)purine], the IC50 in series [1] (50μM IP6, 300μM ATP, 60nM IP6K1, 15 minutes) came out at 24 ± 1.5 µM; in series [1] (62.5μM ATP, 400μM IP6, 60nM IP6K1, 30 minutes, 37°C), 12 ± 1.1 µM; in series [1] (100μM IP6, 300μM ATP, 60nM IP6K1, 15 minutes) it was 20 ± 4.5 µM; in series [1] (200μM IP6, 300μM ATP, 60nM IP6K1, 15 minutes), 21 ± 1.8 µM; in series [1] (250μM ATP, 400μM IP6, 60nM IP6K1, 30 minutes, 37°C), 16 ± 1.1 µM; in series [1] (400μM IP6, 300μM ATP, 60nM IP6K1, 15 minutes) it was 9.5 ± 1.5 µM. Moreover, the IC50 in series [1] (2mM ATP, 400μM IP6, 60nM IP6K1, 30 minutes, 37°C) was determined as 39 ± 1.1 µM. In series [1] (from IC50 shift with ATP or IP6 concentration), the “Mode of inhibition of IP6K1” value is given as “ATP competitive inhibitor; also recorded: IP6 is not competitive with TNP”. The “Signal loss in counter-screen of detection steps” value in series [2] is recorded as “neither TNP nor 6-Hydroxy-DL-Dopa showed significant signal loss”. In series [3], the “Inhibition of 5PP-IP5 production by IP6K1 (PAGE, Toluidine Blue)” value is “inhibit 5PP-IP5 production in this experiment at 10μM albeit to a lesser degree”. In series [4], the “Performance in insulin and glucose tolerance tests” value was “better performance in insulin and glucose tolerance tests”. Further, the Pharmacokinetic properties result in series [5] is given as “poor pharmacokinetic properties”. In addition, in series [5] (in vivo), the Brain penetration result was “low brain penetration”. Besides, in series [6], the “Solubility in aqueous media” value is listed as “insolubility in aqueous media”.

By Km is commonly meant the substrate concentration at which the rate is half of its maximum. In the case of `Nc1ncnc2c1ncn2[C@@H]1O[C@H](COP(=O)(O)OP(=O)(O)OP(=O)(O)O)[C@@H](O)[C@H]1O` [ATP], in series [7], the Michaelis-Menten constant (Km) worked out at 382 ± 44 µM and the “Vmax for ATP” value turned out to be 1116 ± 41 nmol/min/mg. The Michaelis constant (Km) in series [8] was 1000 µM.

The values are drawn from article PMC5706701, “Development of a homogenous high-throughput assay for inositol hexakisphosphate kinase 1 activity” (PLoS ONE, 2017).
